Here are results for one compound from paper PMC11275179, “Superior Anticancer and Antifungal Activities of New Sulfanyl-Substituted Niclosamide Derivatives” (Biomedicines, 2024).

One assay concerns FLO-1 EAC cells. The assay is described as follows: MTT proliferation assay, FLO-1 cells. Type of assay: cell-based. Conditions: FLO-1, 72 h, read-out: Antiproliferative activity IC50, FLO-1. Here is the method:
(§1) The FLO-1, SK-GT-4, and THP-1 cell lines were a gift from Dr. Shrikant Anant’s laboratory. Cells were grown in 10% fetal bovine serum (Fisher Scientific#FB12999102, Pittsburgh, PA, USA) and 1% antibiotic/antimycotic agent (Corning, Tewksbury, MA, USA) in RPMI 1640 media mixed with […] HEPES, L-glutamine (Corning, MA, USA). The cell lines were grown in a 5% CO2 incubator at 37 °C and used below 15 passages for the experiments.
(§2) The proliferation assay used a 3-(4,5-dimethylthiazol-2-yl)-2,5-diphenyltetrazolium bromide (MTT) assay. Briefly, 5000 FLO-1 and SK-GT-4 cells were counted and seeded in each well in 96-well plates. Post 24 h of incubation, EAC cells were treated with multiple concentrations (0–10 μM) of niclosamide (Cayman chemical#10649, Ann Arbor, MI, USA) and its analogs. At respective time points, 10 μL of stock MTT reagent (Millipore Sigma, Bedford, MA, USA) (3 mg/mL) was added to each well and incubated for 1–2 h under the dark at 37 °C. After incubation, the purple formazan crystals were dissolved in equal volumes of DMSO, and the absorbance of the resulting clear solutions was recorded at 570 nm using a microplate reader. A CCK-8 (Abcam, Cat no. ab228554, Burlingame, CA, USA) assay was used for the THP-1 cells. Briefly, 5000 cells were plated in every well of a 96-well plate. After 24 h of plating, THP-1 cells were treated with niclosamide and compound 3a. After the respective time point, an equal amount of CCK-8 reagent was pipetted to the wells and incubated for one hour in an incubator, and finally, the absorbance was recorded at 450 nm. The percent change in the proliferation was calculated by comparing the cell viability of the treated groups to the untreated control cells.

Assay [1] relates to M. mycetomatis MM55 strain. In words: In vitro susceptibility testing (MTS), MM55 strain. Type of assay: cell-based, Madurella mycetomatis. Conditions: Madurella mycetomatis, MM55STRAIN. Here is the method:
The antifungal activity of the compounds was tested against a geographically and genetically diverse set of M. mycetomatis isolates. These included the MM55 strain from Sudan, strains I1, I3, and […] from India, strain P1 from Mali, strain SO1 from Somalia, strain Peru72012 from Peru, and strain CBS247.48 whose country of origin was unknown. All isolates were originally obtained from patients and identified and maintained in the Erasmus Medical Centre, Rotterdam, The Netherlands. In vitro susceptibility testing was performed as reported previously. The only difference was that tetrazolium compound 3-(4,5-dimethylthiazol-2-yl)-5-(3-carboxymethoxyphenyl)-2-(4-sulfophenyl)-2H-tetrazolium salt (MTS) was used as a viability dye in endpoint reading instead of 2,3-bis-(2-methoxy-4-nitro-5-sulfophenyl)-2H-tetrazolium-5-carboxanilide salt (XTT).

Another assay concerns SK-GT-4 EAC cells. The assay is described as follows: MTT proliferation assay, SK-GT-4 cells. Format: cell-based. Conditions: SKGT4, 72 h, read-out: Antiproliferative activity IC50, SK-GT-4. As to the method:
as §1, §2

The subject of a further assay is β-catenin. In words: Western blot, active non-phospho-β-catenin in EAC cells. Conditions: SK-GT-4 1.5 µM and FLO-1 0.8 µM, 72 h. Format: cell-based. Here is the method: (§3) A total of 500,000 FLO-1 and SK-GT-4 cells were seeded in 10 cm^2 dishes. After 24 h, cells were incubated with a vehicle, niclosamide analog 3a (IC50 concentration), and niclosamide (equivalent dose of 3a IC50 concentration). Then, 72 h post-treatment with the compounds, the media were removed to eliminate the dead/floating cells and washed with PBS. The cells were then scraped using a cell scraper in the lysis buffer containing a protease/phosphatase inhibitor cocktail (Thermo Scientific# A32959, Rockford, IL, USA). Further cells were lysed and sonicated using a probe sonicator (Fisher Scientific Model no FB120). The resulting lysates were centrifuged at 6500 rpm and 4 °C for 10 min. […] (Thermo Scientific, Rockford, IL, USA) method was used to estimate total protein levels in the prepared cell lysates, which were diluted with lysis buffer mixed with 2× Laemmli buffer (Biorad#1610737, Hercules, CA, USA) and boiled for 5 min at […]. Equal volumes of protein (50 μg) were used on the SDS-PAGE for separation using gel electrophoresis. […]

In a further assay the test system is SK-GT-4 cells. In words: Spheroid formation assay. Conditions: 1.5 µM, SK-GT-4, 7 days. Type of assay: cell-based. Here is the method: In the ultra-low attachment plates (Corning, Lowell, MA, USA), 500 SK-GT-4 cells were seeded in each well with the spheroid media [DMEM medium supplemented with EGF (20 ng/mL), FGF (20 ng/mL), heparin (4 µg/mL), B27 (10 mL in 500 mL of 50×) (Invitrogen, Carlsbad, CA, USA), and antibiotic pen/strep (1%)]. After 24 h, spheroids were treated with 3a (IC50 dose) and an equivalent dose of niclosamide. Spheroids were counted after 7 days, and images were taken.

In assay [2] the test system is M. mycetomatis SO1 isolate. Details: method as in PMID 34209118. Conditions: read-out: IC50 against the Somalian SO1 isolate; cited from earlier work.
Assay [3] relates to SK-GT-4 and FLO-1 EAC cells. In words: Colony formation assay. Type of assay: cell-based. Conditions: 1.5 µM (SK-GT-4) and 0.8 µM (FLO-1); both EAC cell lines. As to the method:
In total, 500 SK-GT-4 and FLO-1 cells were seeded in each well of 6-well plates before 24 h treatment of niclosamide analog 3a IC50 concentration and an equivalent dose of niclosamide. The media was changed after 72 h with drug-free media to remove drug exposure and allow them to grow and form colonies for 10–12 days. At the end of the experiment, the colonies were washed using PBS three times, fixed with 10% formalin solution (Fisher Scientific#23-305510, Pittsburgh, PA, USA), and stained using a 1% crystal violet (Sigma-Aldrich#C6158, St. Louis, MO, USA) solution in 10% ethanol for 15 min. The colonies were then washed with water, dried at room temperature, counted, and imaged. The number of colonies in the treated cells was compared with untreated cells.

The subject of the next assay is STAT3. In words: Western blot, p-STAT3 and STAT3 in EAC cells. Type of assay: cell-based. Conditions: SK-GT-4 1.5 µM and FLO-1 0.8 µM, 72 h. Here is the method: as §3

In the case of `O=C(Nc1ccc([N+](=O)[O-])cc1Cl)c1cc(Cl)ccc1O` [Niclosamide], the IC50 in the assay on FLO-1 EAC cells is 1050 ± 280 nM; in assay [1] (read-out: Antifungal activity IC50), 15000 ± 1600 nM; with SK-GT-4 EAC cells, 1770 ± 770 nM; in assay [2], 2380 nM. The IC90 in assay [1] (read-out: Antifungal activity IC90) was 23800 ± 100 nM. In addition, in the assay with β-catenin, the “Active (non-phosphorylated) β-catenin (Western blot)” value was “suppressed”. Moreover, the “Inhibition of spheroid formation” value in the assay with SK-GT-4 cells is “inhibit spheroid formation”. Further, the “Inhibition of colony formation” value in assay [3] was “slightly less efficient than 3a”. Also, the “Activating phosphorylation of STAT3 at TYR705 (Western blot)” value in the assay with STAT3 is listed as “inhibited activating STAT3 phosphorylation but not as strongly as 3a”.
